# Target: T1, α5-GABAA receptor (Homo sapiens, UniProt P18507+P31644)
# T1 construct: expressed in transfected cells; host or cells: HEK293, monoclonal stably transfected line
# Experiment: Cell-level screening: whole cell patch clamp, inverse agonist efficacy on α5-GABAA receptor expressed in HEK293
# Format: cell-based
# Conditions: drug 100 nM, GABA 0.05 μM, HEK293 expressing α5, β3 and γ2 subunits, clamped at −60 mV; read-out: Compound inverse agonist efficacy %
# Description: The inventors used electrophysiological methods to determine the inverse agonist efficacy of the drugs to be tested on the α5-GABAA receptor. The detailed methods are as follows:
# Different subunits of GABAA receptors were expressed in human […] cell line 293 (HEK293) cell line. The cells were cultured in a culture medium and used as a cell model for screening pain inhibiting drugs. The α, β and γ subunits are necessary to form complete functional GABAA receptors. In this embodiment, the inventors had established the following cell model: α5 subunit (see GenBank Accession No. NM_000810.3 for protein sequences), β3 subunit (see GenBank Accession No. NM_000814.5 for protein sequences) and γ2 subunit (see GenBank Accession No. NM_000816.3 for protein sequences) were expressed in HEK293 cell line at the same time, followed by screening the monoclonal cell line. This cell line contained α5-GABAA receptor and had complete GABAA receptor function.
# The monoclonal stably transfected HEK-293 cells expressing α5-GABAA receptor were cultured in 10 cm culture dishes and passaged when the cells grew to 80%-90%. During passaging, the culture medium was aspirated first, then 3 mL of DPBS phosphate buffer salt (Gibco™) was added to the culture dishes, and the culture dishes were shaken slightly, and DPBS was aspirated. 1 mL of trypsin (TrypLE Express, Gibco™) was added thereto, and the cells were digested at 37° C. for 1-2 minutes. Then 3 mL of complete medium (DMEM+10% FBS (Gibco™)) was added and the cells at the bottom of the culture dishes were dispersed. The cell suspension were transferred to a 15 mL centrifugal tube (Corning) and then centrifuged at 200 g for 3 minutes. The supernatant was discarded, 4 mL of complete medium was added, and the cells were gently blown and resuspended for use. If cell passaging was performed, the cell suspension was diluted at a ratio of 1:5 or 1:10. If cells for electrophysiology use were prepared, the cell suspension was diluted in a ratio of 1:12, then added into a 24-well dish (Corning™) in which glass slides were placed and pretreated with Poly-D-Lysine, and the cells were tested after being attached to the walls. The culture time of cells for electrophysiology use was no more than 48 hours.
# Drug concentration setting: the final drug concentration used in drug screening was 100 nM, and the GABA concentration range was 0.05 μM. The final drug concentrations used in the dose-inversal agonistic efficiency (%) test were 0.3 nM, 3 nM, 10 nM, 30 nM, 100 nM and 300 nM. The whole cell patch clamp technique was used in electrophysiological experiments, which could refer to the literature (I. Lecker, Y. Yin, D. S. Wang and B. A. Orser, (2013) Potentiation of GABAA receptor activity by volatile anaesthetics is reduced by α5-GABAA receptor-preferring inverse agonists, British Journal of Anaesthesia 110 (S1): i73-i81). The components of extracellular solution (ECS) for electrophysiology use were as follows: 150 mM NaCl, 5 mM KCl, 2.5 mM CaCl2), 1 mM MgCl2, 10 mM HEPES and 10 mM glucose (pH 7.4); electrode internal solutions for electrophysiology use were as follows: 140 mM CsCl, 11 mM EGTA, 10 mM HEPES, 2 mM CaCl2), 1 mM MgCl2, 4 mM MgATP, 2 mM TEA (pH 7.3). The signal acquisition used an EPC-10 amplifier and the PatchMaster software (HEKA). The recording electrode was drawn using borosilicate glass, and the electrode resistance was 4 to 6 MΩ. The ALA-VC3-8PP™ system was used for extracellular administration. Separate cells that grew independently was selected for recording. During recording, the cell membrane potential was clamped at −60 mV. During experiment, an extracellular solution was applied to the cells for about 20 seconds. When the baseline reached to a stable state, the extracellular solution was switched to GABA. Then the current induced by GABA could be detected. […]
# T1 sequence (P31644 32-462): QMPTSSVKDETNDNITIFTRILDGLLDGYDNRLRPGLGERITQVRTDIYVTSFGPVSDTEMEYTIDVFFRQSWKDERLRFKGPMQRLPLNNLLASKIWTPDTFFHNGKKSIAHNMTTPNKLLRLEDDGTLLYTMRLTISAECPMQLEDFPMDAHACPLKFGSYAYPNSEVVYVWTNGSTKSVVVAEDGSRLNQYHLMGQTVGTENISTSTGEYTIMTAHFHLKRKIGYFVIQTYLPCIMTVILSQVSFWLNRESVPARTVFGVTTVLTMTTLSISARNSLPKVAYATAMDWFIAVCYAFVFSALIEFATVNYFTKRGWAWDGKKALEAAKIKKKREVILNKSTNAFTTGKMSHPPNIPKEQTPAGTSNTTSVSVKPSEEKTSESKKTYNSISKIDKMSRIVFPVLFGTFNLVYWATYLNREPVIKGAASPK
# T1 sequence (P28472 26-473 partner): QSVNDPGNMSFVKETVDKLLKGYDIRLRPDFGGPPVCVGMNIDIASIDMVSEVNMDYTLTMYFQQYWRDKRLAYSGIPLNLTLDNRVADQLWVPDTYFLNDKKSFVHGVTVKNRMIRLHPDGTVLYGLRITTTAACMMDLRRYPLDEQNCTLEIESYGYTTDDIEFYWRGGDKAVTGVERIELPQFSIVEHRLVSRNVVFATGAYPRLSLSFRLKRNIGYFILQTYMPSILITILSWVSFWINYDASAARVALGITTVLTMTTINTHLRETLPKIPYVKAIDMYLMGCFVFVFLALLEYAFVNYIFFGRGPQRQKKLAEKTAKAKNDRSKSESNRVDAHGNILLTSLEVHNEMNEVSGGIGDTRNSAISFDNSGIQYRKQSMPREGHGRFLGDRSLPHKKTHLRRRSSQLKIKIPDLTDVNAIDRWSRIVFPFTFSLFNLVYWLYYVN
# T1 sequence (P18507 40-467 isoform P18507-1 limits assumed): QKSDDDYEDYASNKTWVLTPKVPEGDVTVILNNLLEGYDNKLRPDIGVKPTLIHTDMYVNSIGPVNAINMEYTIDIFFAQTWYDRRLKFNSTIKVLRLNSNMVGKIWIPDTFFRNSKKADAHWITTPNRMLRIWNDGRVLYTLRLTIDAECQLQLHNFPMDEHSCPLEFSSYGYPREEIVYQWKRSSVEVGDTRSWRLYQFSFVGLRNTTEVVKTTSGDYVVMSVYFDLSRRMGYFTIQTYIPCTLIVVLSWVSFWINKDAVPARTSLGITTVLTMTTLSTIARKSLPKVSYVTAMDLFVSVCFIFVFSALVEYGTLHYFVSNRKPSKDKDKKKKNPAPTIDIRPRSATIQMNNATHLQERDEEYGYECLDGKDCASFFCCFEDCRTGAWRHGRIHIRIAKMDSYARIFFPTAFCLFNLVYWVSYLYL
row,inhibition at 0.1 µM [%],Structure (SMILES)
1,50,"COc1cc2nnc(-c3cc(C)on3)n2nc1OCc1ccc(C2CCCN2)cn1 (stereo not drawn) [Embodiment 69, 3-(7-Methoxy-6-((5-(pyrrolidin-2-yl)pyridin-2-yl)methoxy)-[1,2,4]triazolo[4,3-b]pyridazin-3-yl)-5-methylisoxazole]"
2,49.3,COc1cc2nnc(-c3cc(C)on3)n2nc1OCc1ccc2c(n1)CCN(C(=O)NCC(F)F)C2 [Embodiment 207]
3,38.5,COc1cc2nnc(-c3cc(C)on3)n2nc1OCc1ccc(F)cn1 [Embodiment 58]
4,39.9,COc1cc2nnc(-c3cc(C)on3)n2nc1OCc1ccc2c(n1)CCN(C(C)C)C2 [Embodiment 83]
5,53.1,COc1cc2nnc(-c3cc(C)on3)n2nc1OCc1ccc(OCC2CCOCC2)nn1 [Embodiment 171]
6,46.8,COc1cc2nnc(-c3cc(C)on3)n2nc1OCc1cnc(OC2COC2)cn1 [Embodiment 157]
7,40.2,"COc1cc2nnc(-c3cc(C)on3)n2nc1OCc1ccc2c(n1)CN(CCC#N)C2 [Embodiment 256, 3-(2-(((7-Methoxy-3-(5-methylisoxazol-3-yl)-[1,2,4]triazolo[4,3-b]pyridazin-6-yl)oxy)methyl)-5,7-dihydro-6H-pyrrolo[3,4-b]pyridin-6-yl)propanenitrile]"
8,42.9,COc1cc2nnc(-c3cc(C)on3)n2nc1OCc1ccc2ccccc2n1 [Embodiment 138]
9,29,COc1cc2nnc(-c3cc(C)on3)n2nc1OCc1ccc(C2=CCCCC2)cn1 [Embodiment 13]
10,42,COc1cc2nnc(-c3cc(C)on3)n2nc1OCc1ccc(OCCCC#N)nn1 [Embodiment 27]
11,52.5,"COc1cc2nnc(-c3cc(C)on3)n2nc1OCc1ccc2c(n1)CCN(S(=O)(=O)N(C)C)C2 [Embodiment 205, 2-(((7-Methoxy-3-(5-methylisoxazol-3-yl)-[1,2,4]triazolo[4,3-b]pyridazin-6-yl)oxy)methyl)-N,N-dimethyl-7,8-dihydro-1,6-naphthyridine-6(5H)-sulfonamide]"
12,49.7,COc1cc2nnc(-c3cc(C)on3)n2nc1OCc1ccc2c(n1)CCN(C(=O)N(C)CC(F)(F)F)C2 [Embodiment 204]
13,54.8,COc1cc2nnc(-c3cc(C)on3)n2nc1OCc1ccc2c(cnn2C(C)C)n1 [Embodiment 236]
14,22.1,CCOc1cccc(COc2nn3c(-c4cc(C)on4)nnc3cc2OC)n1 [Embodiment 22]
15,21.6,COc1cc2nnc(-c3cc(C)on3)n2nc1OCc1ccc(C2CCC2)cn1 [Embodiment 56]
16,39,COc1cc2nnc(-c3cc(C)on3)n2nc1OCc1cccc(C#N)n1 [Embodiment 40]
17,36.8,COc1cc2nnc(-c3cc(C)on3)n2nc1OCc1ccc2nnc(C3CCOCC3)n2n1 [Embodiment 215]
18,49.3,COc1cc2nnc(-c3cc(C)on3)n2nc1OCc1ccc2cnccc2n1 [Embodiment 140]
19,44.8,COc1cnc(COc2nn3c(-c4cc(C)on4)nnc3cc2OC)cn1 [Embodiment 44]
20,36.9,COc1cc2nnc(-c3cc(C)on3)n2nc1OCc1ccc(OCCN2CCC2)cn1 [Embodiment 133]

# Continued, compound first:
row,Structure (SMILES),inhibition at 0.1 µM [%]
1,COc1cc2nnc(-c3cc(C)on3)n2nc1OCc1cccc2cnnn12 [Embodiment 104],48.2
2,COCC(C)Oc1ccc(COc2nn3c(-c4cc(C)on4)nnc3cc2OC)nn1 (stereo not drawn) [Embodiment 161],53.1
3,COc1cc2nnc(-c3cc(C)on3)n2nc1OCc1ccc2c(n1)CNCC2 [Embodiment 120],42.6
4,COc1cc2nnc(-c3cc(C)on3)n2nc1OCc1ccc(OCC2CCCO2)cn1 (stereo not drawn) [Embodiment 106],60.4
5,COc1cc2nnc(-c3cc(C)on3)n2nc1OCc1ccc2c(cnn2CCC#N)n1 [Embodiment 228],44.7
6,"COc1cc2nnc(-c3cc(C)on3)n2nc1OCc1ccc(C(=O)NCC(F)(F)F)cn1 [Embodiment 11, 6-(((7-Methoxy-3-(5-methylisoxazol-3-yl)-[1,2,4]triazolo[4,3-b]pyridazin-6-yl)oxy)methyl)-N-(2,2,2-trifluoroethyl)nicotinamide]",35.4
7,"CCOC(=O)N1CCc2nc(COc3nn4c(-c5cc(C)on5)nnc4cc3OC)ccc2C1 [Embodiment 111, Ethyl 2-(((7-methoxy-3-(5-methylisoxazol-3-yl)-[1,2,4]triazolo[4,3-b]pyridazin-6-yl)oxy)methyl)7,8-dihydro-1,6-naphthyridine-6(5H)-carboxylate]",59.6
8,CCN1CCc2nc(COc3nn4c(-c5cc(C)on5)nnc4cc3OC)ccc2C1 [Embodiment 79],47.6
9,"COc1cc2nnc(-c3cc(C)on3)n2nc1OCc1ccc2c(cnn2CCc2ccccc2)n1 [Embodiment 229, 3-(7-Methoxy-6-(((1-phenethyl-1H-pyrazolo[4,3-b]pyridin-5-yl]methoxy])-[1,2,4]triazolo[4,3-b]pyridazin-3-yl)-5-methylisoxazole]",30.8
10,COc1cc2nnc(-c3cc(C)on3)n2nc1OCc1ccc2c(cnn2Cc2ccccc2)n1 [Embodiment 222],44.3
11,COc1cc2nnc(-c3cc(C)on3)n2nc1OCc1ccc(C2(F)CNC2)cn1 [Embodiment 71],40.7
12,"C=CC(=O)N1CCc2nc(COc3nn4c(-c5cc(C)on5)nnc4cc3OC)ccc2C1 [Embodiment 108, 1-(2-(((7-Methoxy-3-(5-methylisoxazol-3-yl)-[1,2,4]triazolo[4,3-b]pyridazin-6-yl)oxy)methyl)-7,8-dihydro-1,6-naphthyridin-6(5H)-yl)prop-2-en-1-one]",54.9
13,COc1cc2nnc(-c3cc(C)on3)n2nc1OCc1cccc(C2(F)CNC2)n1 [Embodiment 70],31.7
14,COc1cc2nnc(-c3cc(C)on3)n2nc1OCc1ccc2nn(C(C)C)cc2n1 [Embodiment 235],43.5
15,COc1cc2nnc(-c3cc(C)on3)n2nc1OCc1ccc2nn(C)cc2n1 [Embodiment 237],57.9
16,COc1cc2nnc(-c3cc(C)on3)n2nc1OCc1ccc(C)cn1 [Embodiment 42],44.9
17,COc1cc2nnc(-c3cc(C)on3)n2nc1OCc1ccc2c(n1)CCN(C(=O)c1ccccc1)C2 [Embodiment 131],52.2
18,COCCn1ccc2ccc(COc3nn4c(-c5cc(C)on5)nnc4cc3OC)nc21 [Embodiment 92],52.8
19,COc1cc2nnc(-c3cc(C)on3)n2nc1OCc1cccc(C2CC2)n1 [Embodiment 57],17.6
20,COc1cc2nnc(-c3cc(C)on3)n2nc1OCc1ncccc1Cl [Embodiment 17],47.7
21,COc1cc2nnc(-c3cc(C)on3)n2nc1OCc1ccc2c(n1)CCN(CC1CC1)C2 [Embodiment 82],47.9
22,COc1cc2nnc(-c3cc(C)on3)n2nc1OCc1ccc2nn(C3COC3)c(C)c2n1 [Embodiment 258],54.7
23,COc1cc2nnc(-c3cc(C)on3)n2nc1OCc1ccc2c(n1)CCN(CC(F)(F)CO)C2 [Embodiment 196],50.8
24,"COc1cc2nnc(-c3cc(C)on3)n2nc1OCc1ccc2c(n1)CCN(c1ccccc1)C2 [Embodiment 87, 3-(7-Methoxy-6-((6-phenyl-5,6,7,8-tetrahydro-1,6-naphthalen-2-yl)methoxy)-[1,2,4]triazolo[4,3-b]pyridazin-3-yl)-5-methylisoxazole]",39.7
25,COc1cc2nnc(-c3cc(C)on3)n2nc1OCc1ccc(S(C)(=O)=O)cn1 [Embodiment 53],48.8

# Reference: patent publication US12637468B2, “Substituted [1,2,4]triazolo[4,3-b]pyridazines as GABAA receptor modulators” (SHANGHAI SIMR BIOTECHNOLOGY CO., LTD., priority 2019, dated 2026)
